Experimental data published in US11135196B1, “Pharmaceutical composition and its use to inhibit membrane ACE2 expression” (priority 2020, dated 2021).

What was measured:
ACE2 receptor [1] = assay: ACE2 ELISA assay in Human Small Airways Epithelial Cells (SAEC), 6 days; conditions: for decrease of ACE2 expression: FIG. 5A
Procedure: Human Small Airways Epithelial Cells (SAEC), purchased from ATCC, (Manassas, Va., USA) were cultured in Airways Epithelial Cells growth medium (ATCC) in plastic flasks at 37° C. and 5% CO2. For the experiments, the cells (passage 5-7) were plated to collagen-covered 96-well plates in 100 μL/well growth medium and were grown to confluent layer for 4 to 7 days.
For the experiments, cells were supplemented with indicated doses of tested compounds in 100 μL/well of cell growth medium for 6 days with fresh media supplementations every 2 to 3 days. […] Culture plate wells were washed twice with phosphate buffered saline (PBS) and fixed with 3% formaldehyde/0.5% Triton X-100/PBS solution for 1 hour at 4° C., then washed 4 times with PBS. Two-hundred microliter of 1% bovine serum albumin-BSA (Sigma-Aldrich, St. Louis, Mo., USA) in PBS was added and the plate was incubated at 4° C. overnight. Rabbit polyclonal anti-ACE-2 antibodies (Sigma Aldrich, St. Louis, Mo., USA) were added in 100 μL/well 1% BSA/PBS solution for 1.5 hours incubation at room temperature (RT). After 3 wash cycles with 0.1% BSA/PBS wells were supplied with 100 μL/well of anti-rabbit IgG antibodies conjugated with horse radish peroxidase (HRP, Sigma, St. Louis, Mo., USA) for 1 hour at RT. After 3 wash cycles with 0.1% BSA/PBS the HRP activity retained was determined by incubation with 100 μL/well TMB substrate solution (Sigma-Aldrich, St. Louis, Mo., USA) for 20 minutes. at RT, followed by the addition of 50 μL/well of 1N H2504 and optical density measurement at 450 nm with microplate reader (Molecular Devices, San Jose, Calif., USA).
Results are expressed as a percentage of experimental addition—free control (mean±SD, n=6). Non-specific control (wells incubated without anti-ACE2 antibodies) mean value (n=6) was subtracted from all sample values.

ACE2 receptor [2] = assay: ACE-2 ELISA assay in Human Aortic Endothelial Cells, 7 days supplementation; format: cell-based; conditions: 50-100 mcM, FIG. 1
Procedure: Cell supplementation with ascorbic acid: Cells were supplemented with indicated doses of ascorbic acid (Sigma) in EGM-2 for 7 days with six repetitions for each dose. Experimental medium was changed every 2-3 days with freshly prepared ascorbic acid solution in EGM-2.
Mouse monoclonal anti ACE-2 antibody (Santa Cruz Biotechnology) was added in 100 mcl 1% BSA/PBS for 1.5 h incubation at room temperature (RT). […] After three wash cycles with 0.1% BSA/PBS retained HRP activity was determined by incubation 100 mcl TMB substrate solution (Sigma) for 20 min at RT and addition of 50 mcl of 1N H2SO4 by measuring optical density at 450 nm with micro plate reader (Molecular Devices). Results are expressed as percentage of ascorbate-free Control (mean+/−SD, n=6).

ACE2 mRNA [3] = assay: qRT-PCR of ACE2 gene expression in SAEC; format: cell-based, human; conditions: 1.0 mM, 6 days, normalised to β-actin
Procedure: (§1) After 6 days, total RNA was isolated using RNeasy Plus Mini Kit (Qiagen, Germantown, Md., USA). Next, 2500 ng of each isolate was transcribed in cDNA using RT^2 HT First Strand Kit (Qiagen, Germantown, Md., USA) and subjected to qRTPCR using specific primers for ACE2 (forward primer, SEQ ID. NO. 1-5′-[…] -3′; and reverse primer, SEQ ID. NO. 2-5′-[…] -3) and β-actin (forward primer, SEQ ID. NO. 3-5′-[…] -3′; and reverse primer, SEQ ID. NO. 4-5′-[…] -3′). The PCR was performed with a QuantiTect SYBR® Green PCR Kit as the source of 2.5 mM Mg2+, deoxynucleotides and HotStarTaq DNA polymerase, in addition to each primer used at a concentration of 0.3 μM in a 50 μL qPCR mixture (Qiagen, Germantown, Md., USA) in a BioRad CFX instrument (BioRad, Hercules, Calif., USA). The qPCR cycler conditions were programmed according to the manufacturer's recommendations and were as follows: an activation step at 95° C. for 15 minutes, 40 cycles of: denaturation at 94° C. for 15 seconds, annealing at 60° C. for 30 seconds, and extension at 72° C. for 30 seconds. To verify the specificity and identity of the qPCR product, melting curve analyses were performed. The amount of β-actin cDNA was used to normalize the sample amounts used for determinations. All samples were tested in duplicate PCR reactions and the mean of the reactions was used for calculating the expression levels.

ACE2 mRNA [4] = assay: qRT-PCR of ACE2 gene expression in HMEC; format: cell-based, human; conditions: 1.0 mM, 6 days, normalised to β-actin
Procedure: as §1

ACE2 protein [5] = assay: Western blot of ACE2 protein expression in SAEC; conditions: 1.0 mM, 6 days
Procedure: (§2) Human Small Airways Epithelial Cells (SAEC), purchased from ATCC, (Manassas, Va., USA) were cultured in Airways Epithelial Cells growth medium (ATCC) in plastic flasks at 37° C. and 5% CO2. For the experiments, the cells (passage 5-7) were plated to collagen-covered 96-well plates in 100 μL/well growth medium and were grown to confluent layer for 4 to 7 days. Human Microvascular Endothelial Cells isolated from lung (HMEC), purchased from Lonza, (Hayward, Calif., USA) were cultured in EGM-2 MV growth medium (Lonza) in plastic flasks at 37° C. and 5% CO2. […]
(§3) Western blot: SAEC and HMEC were plated on 6-well plates and supplemented with 0.3, 0.6, 0.8, and 1 mM ascorbic acid, respectively. […] The protein concentration was measured by the Dc protein assay (Bio-Rad, Hercules, Calif., USA). Fifty microgram per well of protein was separated on 8% to 16% gradient SDS-PAGE gels (ie, Tris-based electrophoresis using standard Laemmle's method without (3-ME addition to sample buffer) and transferred to a PVDF membrane. Proteins were detected with commercially available anti-ACE-2 monoclonal antibody diluted 1:250 (R&D, Minneapolis, Minn., USA) and anti-β-actin antibody as a loading control (Cell Signaling, Danvers, Mass., USA).

ACE2 protein [6] = assay: Western blot of ACE2 protein expression in HMEC; conditions: 1.0 mM, 6 days
Procedure: as §2, §3

SAEC = assay: Cytotoxic effects on SAEC; format: cell-based, human

C=CCCCCCCCCC(=O)O [10-undecanoic acid]
decrease of ACE2 expression, individual effect (ACE2 receptor [1]; concentration not given, FIG. 9): 18%

CC(=O)N[C@@H](CS)C(=O)O [NAC]
inhibition of ACE2 expression, used individually (ACE2 receptor [1]; 2 mM): 18%

O=c1c(O)cc([C@H]2Oc3cc(O)cc(O)c3C[C@H]2O)cc2c([C@H]3Oc4cc(O)cc(O)c4C[C@H]3O)cc(O)c(O)c12 [Theaflavin]
inhibition of ACE2 expression, used individually (ACE2 receptor [1]; 33 μg/mL and 50 μM respectively, FIG. 10): about 50%

O=C1O[C@H]([C@@H](O)CO)C(O)=C1O [ascorbic acid]
suppression of the expression of the ACE2 receptor (ACE2 receptor [2]): over 50% | ACE2 gene expression decreased by (fold) (ACE2 mRNA [3]): 0.61 fold | ACE2 gene expression decreased by (fold) (ACE2 mRNA [4]): 0.54 fold | reduction of ACE2 protein (Western blot) (ACE2 protein [5]): 55% | reduction of ACE2 protein (Western blot) (ACE2 protein [5]; listed as ascorbate): significantly lower | reduction of ACE2 protein (Western blot) (ACE2 protein [6]): 60% | reduction of ACE2 protein (Western blot) (ACE2 protein [6]; listed as ascorbate): significantly lower | decrease of ACE2 expression (ACE2 receptor [1]; 0.6 mM): about 18% | decrease of ACE2 expression (ACE2 receptor [1]; 1.0 mM): 27% | decrease of membrane expression of ACE2 (ACE2 receptor [1]; 800 mcM, FIG. 4): 27%

CCCCCCCCCCCCCCCC(=O)OC[C@H](O)[C@H]1OC(=O)C(O)=C1O [ascorbyl palmitate]
concentrations showing cytotoxic effects (SAEC): > 100 µM | inhibition of ACE2 expression (ACE2 receptor [1]; 75 μM, FIG. 5B): 50%

O=c1cc(-c2ccccc2)oc2cc(O)c(O)c(O)c12 [baicalein]
inhibition of ACE2 expression, used individually (ACE2 receptor [1]; 25 μM, compared to no ascorbate control, FIG. 7): 75%
